Source: patent US7511145B2 (Genelabs Technologies, Inc., priority 2003, dated 2009)

Target: T1, HCV-NS5b (Hepatitis C virus genotype 1b, UniProt Q9WMX2)
T1 construct: (His)6 (C); made in house; host or cells: XL-1 cells (E. coli), IPTG-inducible plasmid, nickel-NTA purification
Experiment: HCV-NS5b enzyme assay (incorporation of radiolabeled UTP)
Type: biochemical
Conditions: for inhibition at 33 µM: enzyme inhibition at compound concentration of 33 uM; for inhibition at 100 µM: read-out: % inh@100, enzyme inhibition at compound concentration of 100 uM
Source text: The coding sequence of NS5b protein was cloned by PCR from pFKI389luc/NS3-3′/ET as described by Lohmann, V., et al. (1999) Science 285, 110-113 using the following primers: […]
The cloned fragment was missing the C terminus 21 amino acid residues. The cloned fragment was inserted into an IPTG-inducible expression plasmid that provided an epitope tag (His)6 at the carboxy terminus of the protein.
The recombinant enzyme was expressed in XL-1 cells and after induction of expression, the protein was purified using affinity chromatography on a nickel-NTA column. Storage condition was 10 mM Tris-HCl pH 7.5, 50 mM NaCl, 0.1 mM EDTA, 1 mM DTT, 20% glycerol at −20° C.
The polymerase activity was assayed by measuring incorporation of radiolabeled UTP into a RNA product using a biotinylated, heteropolymeric template, which included a portion of the HCV genome. Typically, the assay mixture (50 μL) contained 10 mM Tris-HCl (pH 7.5), 5 mM MgCl2, 0.2 mM EDTA, 10 mM KCl, 1 unit/μL RNAsin, 1 mM DTT, 10 μM each of NTP, including [^3H]-UTP, and 10 ng/μL heteropolymeric template. Test compounds were initially dissolved in 100% DMSO and further diluted in aqueous buffer containing 5% DMSO. Typically, compounds were tested at concentrations between 1 nM and 100 μM. Reactions were started with addition of enzyme and allowed to continue at 37° C. for 2 hours. Reactions were quenched with 8 μL of 100 mM EDTA and reaction mixtures (30 μL) were transferred to streptavidin-coated scintillation proximity microtiter plates (FlashPlates) and incubated at 4° C. overnight. Incorporation of radioactivity was determined by scintillation counting.
Shown in Table IX below are the values for enzyme inhibition measured at compound concentrations of 100 and 33 uM, (% inh@[…] and % inh@33, respectively). The percent inhibition values are calculated from the differential incorporation of radioactivity compared to a control reaction without compound: % inhibition=100−[(CountsINH−CountsBKG)/CountsCTRL−CountsBKG)×100 where CountsINH is the signal of the testwell with inhibitor, CountsBKG is the background signal and CountsCTRL is the signal of a testwell without inhibitor.

SMILES	inhibition at 33 µM [%]	inhibition at 100 µM [%]
O=C(O)[C@@H]1C[C@@H](O)CN1C(=O)c1ccc2c(c1)nc(-c1ccc3nc(-c4ccccc4)cnc3c1)n2C1CCCCC1 [Compound 248, 1-[1-Cyclohexyl-2-(2-phenyl-quinoxalin-6-yl)-1H-benzoimidazole-5-carbonyl]-4-hydroxy-pyrrolidine-2-carboxylic acid]	47.4	86.8
CC[C@H](C)[C@H](NC(=O)c1ccc2c(c1)nc(-c1ccc3nc(-c4ccccc4)cnc3c1)n2C1CCCCC1)C(=O)O [Compound 249, 2-{[1-Cyclohexyl-2-(2-phenyl-quinoxalin-6-yl)-1H-benzoimidazole-5-carbonyl]-amino}-3-methyl-pentanoic acid]	94.5	97.2
c1ccc(-c2cnc3cc(-c4nc5cc(-c6nn[nH]n6)ccc5n4C4CCCCC4)ccc3n2)cc1 [Compound 258, 6-[1-cyclohexyl-5-(1H-tetrazol-5-yl)-1H-benzimidazol-2-yl]-2-phenylquinoxaline]	97	98
O=C(c1ccc(-c2ccc(Cl)cc2)c(-c2ccc3cc(-c4nc5cc(-c6nnn[nH]6)ccc5n4C4CCCCC4)ccc3n2)c1)N1CCCC1 [Compound 259, (4′-chloro-2-{6-[1-cyclohexyl-5-(1H-tetrazol-5-yl)-1H-benzoimidazol-2-yl]-quinolin-2-yl}-biphenyl-4-yl)-pyrrolidin-1-yl-methanone]	99.7	99.4
C[C@H](NC(=O)c1ccc2c(c1)nc(-c1ccc3nc(-c4ccccc4)cnc3c1)n2C1CCCCC1)C(=O)O [Compound 310, 2-[(2-(2-phenyl-quinoxalin-6-yl)-1-cyclohexyl-1H-benzoimidazole-5-carbonyl)-amino]-propionic acid]	83.2	98.3
O=C(O)CNC(=O)c1ccc2c(c1)nc(-c1ccc3nc(-c4ccccc4)cnc3c1)n2C1CCCCC1 [Compound 311, {[1-Cyclohexyl-2-(2-phenyl-quinoxalin-6-yl)-1H-benzoimidazole-5-carbonyl]-amino}-acetic acid]	83	93.3
O=C(O)c1ccc2c(c1)nc(-c1ccc3cc(-c4ccccc4)cnc3c1)n2C1CCCCC1 [Compound 351, 1-cyclohexyl-2-(3-phenyl-quinolin-7-yl)-1H-benzoimidazole-5-carboxylic acid]	94.9	98.1
O=C(O)c1ccc2c(c1)nc(-c1ccc3nc(-c4ccccc4Br)ccc3c1)n2C1CCCCC1 [Compound 352, 2-[2-(2-bromo-phenyl)-quinolin-6-yl]-1-cyclohexyl-1H-benzoimidazole-5-carboxylic acid]	94.2	98.8
O=C(O)c1ccc2[nH]c(-c3ccc4nc(-c5ccccc5-c5ccc(Cl)cc5)ccc4c3)nc2c1 [Compound 353, 2-[2-(4′-Chloro-biphen-2-yl)-quinolin-6-yl]-1H-benzoimidazole-5-carboxylic acid]	67.3	67.5
O=C(O)c1ccc2c(c1)nc(-c1ccc3nc(-c4cc(Br)ccc4O)ccc3c1)n2C1CCCCC1 [Compound 354, 2-[2-(5-Bromo-2-hydroxy-phenyl)-quinolin-6-yl]-1-cyclohexyl-1H-benzoimidazole-5-carboxylic acid]	98	101
O=C(O)c1ccc2c(c1)nc(-c1ccc3nc(-c4cccnc4)ccc3c1)n2C1CCCCC1 [Compound 355, 1-cyclohexyl-2-(2-pyridin-3-yl-quinolin-6-yl)-1H-benzoimidazole-5-carboxylic acid]	72.3	89.3
COc1ccc(-c2ccc(Cl)cc2)c(-c2ccc3cc(-c4nc5cc(C(=O)O)ccc5n4C4CCCCC4)ccc3n2)c1 [Compound 356, 2-[2-(4′-Chloro-4-methoxy-biphen-2-yl)-quinolin-6-yl]-1-cyclohexyl-1H-benzoimidazole-5-carboxylic acid]	101	100
O=C(O)c1ccc2c(c1)nc(-c1ccc3nc(-c4cccc5ccccc45)ccc3c1)n2C1CCCCC1 [Compound 357, 1-cyclohexyl-2-(2-naphthalen-1-yl-quinolin-6-yl)-1H-benzoimidazole-5-carboxylic acid]	98.8	101
Nc1ccc(-c2ccc3cc(-c4nc5cc(C(=O)O)ccc5n4C4CCCCC4)ccc3n2)cc1 [Compound 358, 2-[2-(4-amino-phenyl)-quinolin-6-yl]-1-cyclohexyl-1H-benzoimidazole-5-carboxylic acid]	85.1	95.3
O=C(O)COc1cccc(-c2ccc3cc(-c4nc5cc(C(=O)O)ccc5n4C4CCCCC4)ccc3n2)c1 [Compound 359, 2-[2-(3-Carboxymethoxy-phenyl)-quinolin-6-yl]-1-cyclohexyl-1H-benzoimidazole-5-carboxylic acid]	97.3	99.6
O=C(O)c1ccc2c(c1)nc(-c1ccc3nc(-c4cc(OCC(=O)N5CCCC5)ccc4-c4ccccc4)ccc3c1)n2C1CCCCC1 [Compound 360, 1-cyclohexyl-2-{2-[4-(2-oxo-2-pyrrolidin-1-yl-ethoxy)-biphen-2-yl]-quinolin-6-yl}-1H-benzoimidazole-5-carboxylic acid]	97.6	97.9
NC(=O)CNC(=O)c1ccc(-c2ccc(Cl)cc2)c(-c2ccc3cc(-c4nc5cc(C(=O)O)ccc5n4C4CCCCC4)ccc3n2)c1 [Compound 361, 2-{2-[4-(Carbamoylmethyl-carbamoyl)-4′-chloro-biphen-2-yl]-quinolin-6-yl}-1-cyclohexyl-1H-benzoimidazole-5-carboxylic acid]	100	98.7
CNC(=O)c1ccc(-c2ccccc2)c(-c2ccc3cc(-c4nc5cc(C(=O)O)ccc5n4C4CCCCC4)ccc3n2)c1 [Compound 362, 1-cyclohexyl-2-[2-(4-methylcarbamoyl-biphen-2-yl)-quinolin-6-yl]-1H-benzoimidazole-5-carboxylic acid]	101	98.4
Nc1c(Cl)cc(-c2ccc3cc(-c4nc5cc(C(=O)O)ccc5n4C4CCCCC4)ccc3n2)cc1Cl [Compound 363, 2-[2-(4-amino-3,5-dichloro-phenyl)-quinolin-6-yl]-1-cyclohexyl-1H-benzoimidazole-5-carboxylic acid]	98.4	101
O=C(O)c1ccc2c(c1)nc(-c1ccc3nc(-c4ccc(O)cc4O)ccc3c1)n2C1CCCCC1 [Compound 364, 1-cyclohexyl-2-[2-(2,4-dihydroxy-phenyl)-quinolin-6-yl]-1H-benzoimidazole-5-carboxylic acid]	98.6	101
COc1ccc(-c2ccc(C#N)cc2)c(-c2ccc3cc(-c4nc5cc(C(=O)O)ccc5n4C4CCCCC4)ccc3n2)c1 [Compound 365, 2-[2-(4′-cyano-4-methoxy-biphen-2-yl)-quinolin-6-yl]-1-cyclohexyl-1H-benzoimidazole-5-carboxylic acid]	102	103
COc1ccc(-c2ccc(F)c(Cl)c2)c(-c2ccc3cc(-c4nc5cc(C(=O)O)ccc5n4C4CCCCC4)ccc3n2)c1 [Compound 366, 2-[2-(3′-chloro-4′-fluoro-4-methoxy-biphen-2-yl)-quinolin-6-yl]-1-cyclohexyl-1H-benzoimidazole-5-carboxylic acid]	97.6	99.4
